{
  "source": "patent US20130025073A1",
  "about": "“DETERGENT COMPOSITIONS” (priority 2011, published 2013)",
  "target": "T1, Protease (Purafect Prime®) (Bacillus amyloliquefaciens, UniProt P00782, Y324L)",
  "T1 construct": "purchased Genencor International, Palo Alto Purafect Prime®",
  "T1 sequence (P00782 108-382 Y324L)": "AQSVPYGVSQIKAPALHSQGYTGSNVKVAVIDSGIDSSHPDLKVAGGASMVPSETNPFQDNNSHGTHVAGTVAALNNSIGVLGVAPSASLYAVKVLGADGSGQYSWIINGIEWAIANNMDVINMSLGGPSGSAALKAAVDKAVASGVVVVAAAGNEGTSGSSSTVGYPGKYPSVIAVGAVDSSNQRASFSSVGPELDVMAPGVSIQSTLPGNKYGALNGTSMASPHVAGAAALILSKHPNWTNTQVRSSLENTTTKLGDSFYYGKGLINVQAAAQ",
  "assay": "Stability of Protease in amine neutralized-anionic surfactant-containing detergent (Example 10) after incubation",
  "format": "physicochemical",
  "details": "Detergent example 10, pH 8.2, 3 weeks and 6 weeks 30° C., versus a nil PBA reference",
  "procedure": "Test of stability of Protease in an Amine Neutralized-Anionic Surfactant-Containing Detergent after Incubation in Detergent, Example 10, at pH 8.2\nA detergent composition, example 10, nil enzyme, nil calcium chloride dihydrate and nil phenylboronic acid (PBA), balanced to pH 8.2 using monoethanolamine, was prepared.\nThe protease, that sold under the trade name of Purafect Prime®, by Genencor International, Palo Alto (38.7 mg active Protease protein in 100 g detergent), was added to the above detergent. Each detergent sample was determined for the initial residual enzyme activity before incubation (Initial reference samples).\nThe residual enzyme activity for each sample was determined after incubation at 30° C. for 3 weeks and 6 weeks and compared to their reference sample. The residual activity was determined using the standard enzyme activity assays for the relevant enzyme.\nDetergent formulations A-D, 5 g pH 8.2, were placed in duplicate into a 7 ml glass vial with an air tight lid. The residual enzyme activity was determined for the initial samples, in duplicate, before incubation.\nThe samples were placed into an incubator for 3 weeks and 6 weeks at 30° C. Immediately after incubation, the samples were analysed for both residual Protease. In this test the residual activity of 100% equals no loss of Protease activity compared to initial residual enzyme activity before incubation.",
  "data": [
    {"smiles": "OB(O)c1ccccc1", "note": "[PBA, phenylboronic acid]", "values": [
      {"measurement": "Effect of PBA addition on stability of the Protease", "result": "significantly improves stability of the Protease"}
    ]}
  ]
}
